From ChEMBL document CHEMBL1201862, “PubChem BioAssay data set” (2004)
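Cultured in 96-well plates, cells were exposed to test compound for 48 hours across five concentrations. GI50 is the concentration that inhibits growth by half.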 Active and inactive are the calls of the source. Rule as the data show it: active = GI50 up to about 1.1 µM and inactive = higher.

Assays:
Experiment in all cases: NCI anticancer screen, dose series, 48 h
[1] = test system: HCT-116
[2] = test system: SNB-75
[3] = test system: TK-10
[4] = test system: NCI-H226
[5] = test system: NCI-H23
[6] = test system: A549
[7] = test system: HOP-62
[8] = test system: Hs-578T
[9] = test system: SW-620
[10] = test system: OVCAR-8
[11] = test system: PC-3
[12] = test system: HL-60
[13] = test system: UO-31
[14] = test system: SK-MEL-5
[15] = test system: HT-29
[16] = test system: MOLT-4
[17] = test system: COLO 205
[18] = test system: K562
[19] = test system: 786-0
[20] = test system: Malme-3M
[21] = test system: RPMI-8226
[22] = test system: UACC-62
[23] = test system: NCI-H460
[24] = test system: SNB-19
[25] = test system: NCI/ADR-RES
[26] = test system: HCT-15
[27] = test system: DU-145
[28] = test system: MDA-MB-435
[29] = test system: SK-MEL-28
[30] = test system: CCRF-CEM
[31] = test system: HOP-92
[32] = test system: RXF 393
[33] = test system: NCI-H522
[34] = test system: ACHN
[35] = test system: OVCAR-3
[36] = test system: SF-295
[37] = test system: LOX IMVI
[38] = test system: KM12
[39] = test system: SR
[40] = test system: IGROV-1
[41] = test system: SN12C
[42] = test system: U-251
[43] = test system: UACC-257
[44] = test system: HCC 2998
[45] = test system: T47D
[46] = test system: A498
[47] = test system: BT-549
[48] = test system: SF-539
[49] = test system: OVCAR-4
[50] = test system: MDA-MB-231
[51] = test system: EKVX
[52] = test system: SF-268
[53] = test system: SK-OV-3
[54] = test system: CAKI-1
[55] = test system: OVCAR-5
[56] = test system: M14
[57] = test system: SK-MEL-2
[58] = test system: MCF7

Q: Which GI50 [1] does the source give for `C/C(Nc1ccc(F)cc1)=C1/CCOC1=O` here?
A: Its GI50 is > 100 µM (inactive).

Q: What about the GI50 [2] of the same molecule?
A: Its GI50 is > 100 µM (inactive).

Q: What about the GI50 [3] of the same molecule?
A: The GI50 was > 100 µM (inactive).

Q: And the GI50 [4]?
A: The GI50 was 91.6 µM (inactive).

Q: What about the GI50 [5] of the same molecule?
A: Its GI50 is > 100 µM (inactive).

Q: What about the GI50 [6] of the same molecule?
A: Its GI50 is 90.4 µM (inactive).

Q: What about the GI50 [7] of the same molecule?
A: Its GI50 is > 100 µM (inactive).

Q: And the GI50 [8]?
A: The GI50 was > 100 µM (inactive).

Q: And the GI50 [9]?
A: The GI50 was > 100 µM (inactive).

Q: What about the GI50 [10] of the same molecule?
A: Its GI50 is 17.3 µM (inactive).

Q: What about the GI50 [11] of the same molecule?
A: The GI50 was 46.5 µM (inactive).

Q: What about the GI50 [12] of the same molecule?
A: The GI50 was 12.4 µM (inactive).

Q: And the GI50 [13]?
A: The GI50 was 92.3 µM (inactive).

Q: And the GI50 [14]?
A: Its GI50 is 12.9 µM (inactive).

Q: And the GI50 [15]?
A: Its GI50 is > 100 µM (inactive).

Q: And the GI50 [16]?
A: The GI50 was 24.5 µM (inactive).

Q: And the GI50 [17]?
A: The GI50 was 4.7 µM (inactive).

Q: And the GI50 [18]?
A: Its GI50 is 62.8 µM (inactive).

Q: What about the GI50 [19] of the same molecule?
A: Its GI50 is > 100 µM (inactive).

Q: What about the GI50 [20] of the same molecule?
A: Its GI50 is > 100 µM (inactive).

Q: What about the GI50 [21] of the same molecule?
A: The GI50 was > 100 µM (inactive).

Q: What about the GI50 [22] of the same molecule?
A: The GI50 was 0.277 µM (active).

Q: And the GI50 [23]?
A: Its GI50 is > 100 µM (inactive).

Q: And the GI50 [24]?
A: The GI50 was > 100 µM (inactive).

Q: And the GI50 [25]?
A: The GI50 was > 100 µM (inactive).

Q: What about the GI50 [26] of the same molecule?
A: Its GI50 is over 100 µM.

Q: And the GI50 [27]?
A: The GI50 was > 100 µM (inactive).

Q: What about the GI50 [28] of the same molecule?
A: The GI50 was 2.92 µM (inactive).

Q: And the GI50 [29]?
A: Its GI50 is > 100 µM (inactive).

Q: What about the GI50 [30] of the same molecule?
A: The GI50 was > 100 µM (inactive).

Q: What about the GI50 [31] of the same molecule?
A: Its GI50 is > 100 µM (inactive).

Q: What about the GI50 [32] of the same molecule?
A: The GI50 was 4.73 µM (inactive).

Q: What about the GI50 [33] of the same molecule?
A: The GI50 was > 100 µM (inactive).

Q: What about the GI50 [34] of the same molecule?
A: The GI50 was 1.8 µM (inactive).

Q: What about the GI50 [35] of the same molecule?
A: Its GI50 is > 100 µM (inactive).

Q: What about the GI50 [36] of the same molecule?
A: The GI50 was 16.5 µM (inactive).

Q: And the GI50 [37]?
A: Its GI50 is 2.25 µM (inactive).

Q: What about the GI50 [38] of the same molecule?
A: The GI50 was 1.38 µM (inactive).

Q: And the GI50 [39]?
A: Its GI50 is > 100 µM (inactive).

Q: And the GI50 [40]?
A: The GI50 was > 100 µM (inactive).

Q: What about the GI50 [41] of the same molecule?
A: The GI50 was > 100 µM (inactive).

Q: What about the GI50 [42] of the same molecule?
A: The GI50 was > 100 µM (inactive).

Q: And the GI50 [43]?
A: Its GI50 is > 100 µM (inactive).

Q: What about the GI50 [44] of the same molecule?
A: The GI50 was 25.6 µM (inactive).

Q: What about the GI50 [45] of the same molecule?
A: Its GI50 is 63.2 µM (inactive).

Q: What about the GI50 [46] of the same molecule?
A: Its GI50 is > 100 µM (inactive).

Q: And the GI50 [47]?
A: Its GI50 is > 100 µM (inactive).

Q: And the GI50 [48]?
A: Its GI50 is 77.3 µM (inactive).

Q: What about the GI50 [49] of the same molecule?
A: Its GI50 is > 100 µM (inactive).

Q: And the GI50 [50]?
A: The GI50 was > 100 µM (inactive).

Q: What about the GI50 [51] of the same molecule?
A: Its GI50 is > 100 µM (inactive).

Q: And the GI50 [52]?
A: Its GI50 is > 100 µM (inactive).

Q: What does the source list for `O=C(NC(Cc1c[nH]c2ccccc12)C(=O)Nc1ccc(Br)cc1)OCc1ccccc1` (stereo not drawn)?
A: GI50 [1]: 9.82 µM (inactive); GI50 [2]: 14.7 µM (inactive); GI50 [3]: 14.9 µM (inactive); GI50 [4]: 14.5 µM (inactive); GI50 [5]: 11.8 µM (inactive); GI50 [6]: 9.16 µM (inactive); GI50 [7]: 11 µM (inactive); GI50 [8]: 18.9 µM (inactive); GI50 [9]: 16 µM (inactive); GI50 [10]: 13.6 µM (inactive); GI50 [11]: 10.4 µM (inactive); GI50 [12]: 3.97 µM (inactive); GI50 [13]: 9.1 µM (inactive); GI50 [14]: 10.7 µM (inactive); GI50 [15]: 6.19 µM (inactive); GI50 [16]: 4.53 µM (inactive); GI50 [17]: 12.1 µM (inactive); GI50 [18]: 6.82 µM (inactive); GI50 [53]: 14.1 µM (inactive); GI50 [19]: 10.8 µM (inactive); GI50 [20]: 11.4 µM (inactive); GI50 [21]: 6.38 µM (inactive); GI50 [54]: 5.27 µM (inactive); GI50 [22]: 10.1 µM (inactive); GI50 [23]: 6.22 µM (inactive); GI50 [24]: 21.1 µM (inactive); GI50 [55]: 17.2 µM (inactive); GI50 [25]: 12.1 µM (inactive); GI50 [26]: 11.1 µM; GI50 [27]: 13.3 µM (inactive); GI50 [56]: 11.8 µM (inactive); GI50 [28]: 8.83 µM (inactive); GI50 [29]: 14.3 µM (inactive); GI50 [30]: 3.6 µM (inactive); GI50 [31]: 5.18 µM (inactive); GI50 [32]: 9.33 µM (inactive); GI50 [33]: 10.1 µM (inactive); GI50 [34]: 10.2 µM (inactive); GI50 [35]: 11.6 µM (inactive); GI50 [36]: 9.23 µM (inactive); GI50 [37]: 9.06 µM (inactive); GI50 [38]: 6.31 µM (inactive); GI50 [57]: 6.56 µM (inactive); GI50 [39]: 6.95 µM (inactive); GI50 [40]: 9.12 µM (inactive); GI50 [41]: 9.46 µM (inactive); GI50 [42]: 12 µM (inactive); GI50 [58]: 10.4 µM (inactive); GI50 [43]: 11.3 µM (inactive); GI50 [44]: 11 µM (inactive); GI50 [45]: 10 µM (inactive); GI50 [46]: 11.4 µM (inactive); GI50 [47]: 14.8 µM (inactive); GI50 [48]: 15.3 µM (inactive); GI50 [49]: 9.14 µM (inactive); GI50 [50]: 10.2 µM (inactive); GI50 [51]: 6.59 µM (inactive); GI50 [52]: 12.7 µM (inactive)

Q: What does the source list for `COC(=O)N[C@H](C(=O)O)C(C)O[Si](C)(C)C(C)(C)C` (stereo partly drawn)?
A: GI50 [1]: > 100 µM (inactive); GI50 [3]: > 100 µM (inactive); GI50 [4]: > 100 µM (inactive); GI50 [5]: > 100 µM (inactive); GI50 [6]: > 100 µM (inactive); GI50 [7]: > 100 µM (inactive); GI50 [8]: > 100 µM (inactive); GI50 [9]: > 100 µM (inactive); GI50 [10]: > 100 µM (inactive); GI50 [11]: > 100 µM (inactive); GI50 [12]: > 100 µM (inactive); GI50 [13]: > 100 µM (inactive); GI50 [14]: > 100 µM (inactive); GI50 [15]: > 100 µM (inactive); GI50 [16]: > 100 µM (inactive); GI50 [17]: > 100 µM (inactive); GI50 [18]: > 100 µM (inactive); GI50 [53]: > 100 µM (inactive); GI50 [19]: > 100 µM (inactive); GI50 [20]: > 100 µM (inactive); GI50 [21]: > 100 µM (inactive); GI50 [22]: > 100 µM (inactive); GI50 [23]: > 100 µM (inactive); GI50 [24]: > 100 µM (inactive); GI50 [55]: > 100 µM (inactive); GI50 [25]: > 100 µM (inactive); GI50 [26]: > 100 µM; GI50 [27]: > 100 µM (inactive); GI50 [28]: > 100 µM (inactive); GI50 [29]: > 100 µM (inactive); GI50 [30]: > 100 µM (inactive); GI50 [32]: > 100 µM (inactive); GI50 [33]: > 100 µM (inactive); GI50 [34]: > 100 µM (inactive); GI50 [35]: 7.08 µM (inactive); GI50 [36]: > 100 µM (inactive); GI50 [37]: > 100 µM (inactive); GI50 [38]: > 100 µM (inactive); GI50 [39]: > 100 µM (inactive); GI50 [40]: > 100 µM (inactive); GI50 [41]: > 100 µM (inactive); GI50 [42]: > 100 µM (inactive); GI50 [58]: > 100 µM (inactive); GI50 [43]: > 100 µM (inactive); GI50 [44]: > 100 µM (inactive); GI50 [45]: > 100 µM (inactive); GI50 [46]: > 100 µM (inactive); GI50 [47]: > 100 µM (inactive); GI50 [48]: > 100 µM (inactive); GI50 [49]: > 100 µM (inactive); GI50 [50]: > 100 µM (inactive); GI50 [51]: > 100 µM (inactive); GI50 [52]: > 100 µM (inactive)
